In paper PMC12207908, “The broad‐spectrum antimicrobial peptide BMAP‐27B potentiates carbapenems against NDM‐producing pathogens in food animals” (mLife, 2025):
No end group written: not given here.

How the values were obtained:
CREC6 = assay type: in vitro ADME, Escherichia coli
Description: (§1) The antibacterial activity of the treated peptide was determined using CREC6 and CRKP2 as models. Bacterial colony survival was quantified by measuring the absorbance at 600 nm using a microplate reader. The activity of the peptide was also determined in the presence of NaCl to assess its salt sensitivity, with a final NaCl concentration of 400 mM. […] The bactericidal efficacy of BMAP‐27B against bacteria in SIF or SGF was evaluated using the plate counting method at different time points.

Acinetobacter baumannii = assay type: cell-based
Description: The MIC of BMAP‐27B and other antibiotics was determined using the broth microdilution method, following the guidelines established by the Clinical and Laboratory Standards Institute (CLSI). Briefly, the bacterial cultures were grown to the logarithmic growth phase and subsequently diluted in Mueller–Hinton broth (MHB) to achieve a final concentration of 1 × 10^6 CFU/ml. BMAP‐27B and the other antibiotics were prepared in twofold serial dilutions in MHB and mixed with an equal volume of bacterial suspension in 96‐well polypropylene microtiter plates.

BALB/c mice = assay: In vivo biocompatibility; conditions: 5, 10, and 20 mg/kg intraperitoneal, once daily
Description: Male BALB/c mice (6–8 weeks of age, 18 ± 2 g) were purchased from Tengxin Biotechnology Co., Ltd., for the animal studies. Healthy male BALB/c mice were randomly divided into four groups, with six mice per group. Mice in the three experimental groups received intraperitoneal injections of peptide solutions at doses of 5, 10, and 20 mg/kg, while the control group received injections of PBS. Injections were administered once daily for five consecutive days, and the body weight of each mouse was recorded daily. On the sixth day, the mice were euthanized under deep anesthesia and blood samples were collected for biochemical analysis, including AST, CREA, UREA, and ALT. The livers and kidneys were subsequently weighed, fixed in 4% paraformaldehyde, and subjected to histopathological examination using H&E staining.

bacterial suspension = assay: Antimicrobial activity in varying concentrations of proteases and serum; assay type: in vitro ADME; conditions: trypsin or proteinase K, 1:1 (v/v) incubation 1 h, diluted to 2×MIC, then 18-24 h at 37℃ with bacteria (Figure S1)
Description: The above mixture was added to the bacterial suspension and incubated at 37℃ for 18-24 hours. Finally, the absorbance of […] was measured and used to calculate the survival rate of bacteria.

[1] = assay type: binding; conditions: pH 7.4
Description: The detailed steps of molecular docking are provided in the Supporting Information. Microcalorimetric experiments were conducted to examine the interaction between BMAP‐27B and the divalent cation zinc (Zn^2+) using ITC to determine the binding affinity of BMAP‐27B for Zn^2+. Both BMAP‐27B and Zn^2+ were dissolved in PBS (pH 7.4). Before the experiment, all samples were degassed in a sonication bath for 10 min. At 25°C, Zn^2+ was sequentially injected into the calorimetric cell containing BMAP‐27B, with a total of 25 injections performed, allowing for a 180‐s equilibration interval between injections. The resulting data were analyzed using software to calculate K d.

CREC6 and CRKP2 = assay type: in vitro ADME, Escherichia coli and Klebsiella pneumoniae
Description: as §1

GRFKRLRKKLKKLFKKLSPVIPLLHLG [BMAP-27B]
activity in simulated intestinal fluid (SIF) (CREC6): no activity | viable bacterial count after incubation with simulated gastric fluid (SGF) (CREC6): lower than that of the control group | MIC (Acinetobacter baumannii): ≤ 6.250 µg/mL | relative weights of the heart, liver, spleen, and kidneys (BALB/c mice): no significant differences | protease concentration resulting in loss of activity (bacterial suspension): above 200 μg/ml | Kd [1]: 31.36 µM | efficacy after co‐incubation with fetal bovine serum (CREC6 and CRKP2): maintained considerable efficacy
